The target of one experiment is T1, human PLK3-PBD (412-646) (Homo sapiens, UniProt Q9H4B4).
T1 construct: PLK3-PBD (412-646); GST (N, cleaved yes); made in house; host or cells: E. coli Rosetta2 (DE3) pLysS
T1 sequence (Q9H4B4 412-646): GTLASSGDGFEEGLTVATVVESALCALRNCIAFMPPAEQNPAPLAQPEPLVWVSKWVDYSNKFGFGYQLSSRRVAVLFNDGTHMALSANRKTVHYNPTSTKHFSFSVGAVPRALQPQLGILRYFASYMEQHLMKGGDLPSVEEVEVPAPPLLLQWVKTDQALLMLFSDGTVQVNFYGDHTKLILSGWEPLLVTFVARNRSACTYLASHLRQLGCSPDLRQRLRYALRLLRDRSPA
In words: Fluorescence polarization binding assay, PLK3-PBD. The following applies: FITC-labelled peptide 10 nM, protein 0 to 4 uM. As for the experimental part: (§1) The human PLK1-PBD (371-594), PLK2-PBD (451-685) and PLK3-PBD (412-646) genes were cloned into pGEX6p-1 vector using EcoRI/XhoI restriction sites. Proteins were over expressed in E. coli strain Rosetta2 (DE3) pLysS. The cells were grown in Terrific Broth medium to an OD600 of 0.6 at 37° C. and recombinant proteins were induced with 0.1 mM isopropyl b-D-thiogalactopyranoside (IPTG) at 25° C. for PLK2 and 20° C. for PLK1 and PLK3, respectively. The cells were further grown at 25° C. (PLK2) or 20° C. (PLK1 and PLK3) for 20 h after IPTG induction. Each cell pellet was lysed with each PLK Binding buffer as described below. […] The purified PLK-PBD proteins were concentrated and used for the fluorescence polarization binding assay.
(§2) For the fluorescence polarization binding assay, each fluorescein isothiocyanate (FITC)-labeled 1010pT (GVLSpTLI), 1010T (GVLSTLI), 1010E (GVLSELI), or 1010D (GVLSDLI) peptide was mixed with purified PLK1, PLK2 or PLK3 and incubated in a buffer containing 10 mM HEPES (pH 7.5), 50 mM NaCl, 1 mM EDTA, 1 mM DTT and 0.0025% (v/v) Tween 20. […] Fluorescence polarization was analyzed 30 min after mixing the peptide and proteins in a 96-well plate using an INFINTE 200 PRO (Tecan). […]

For a further experiment, the target named is T2, human PLK2-PBD (451-685) (Homo sapiens, UniProt Q9NYY3).
T2 construct: PLK2-PBD (451-685); GST (N, cleaved yes); made in house; host or cells: E. coli Rosetta2 (DE3) pLysS
T2 sequence (Q9NYY3 451-685): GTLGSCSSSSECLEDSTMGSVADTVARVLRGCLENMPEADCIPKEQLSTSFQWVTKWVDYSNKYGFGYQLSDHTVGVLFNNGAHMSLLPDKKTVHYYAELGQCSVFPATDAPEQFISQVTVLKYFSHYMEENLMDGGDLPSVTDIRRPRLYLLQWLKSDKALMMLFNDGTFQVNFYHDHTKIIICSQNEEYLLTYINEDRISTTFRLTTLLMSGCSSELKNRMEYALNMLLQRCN
The experiment in a line: Fluorescence polarization binding assay, PLK2-PBD. The conditions noted are these: FITC-labelled peptide 10 nM, protein 0 to 4 uM. Here is the method:
as §1, §2
(In general: Fluorescence polarisation rises when a labelled molecule tumbles more slowly, as on binding a larger partner.)

For another experiment, the target named is T3, human PLK1-PBD (371-594) (Homo sapiens, UniProt P53350).
T3 construct: The human PLK1-PBD (371-594) was amplified by PCR; GST (N, cleaved yes); made in house; host or cells: E. coli Rosetta2(DE3)pLysS
In words: Fluorescence polarisation binding assay for the PBD of PLK1. The following applies: FITC-labelled peptide 10 nM, protein 0 to 4 μM. As for the experimental part: The human PLK1-PBD (371-594) was amplified by PCR and cloned into the pGEX6p-1 vector using the EcoRI and XhoI restriction enzyme sites. The protein was overexpressed in E. coli Rosetta2(DE3)pLysS cells (Novagen). The cells were grown at 37° C. in 3 L of Terrific Broth medium to an OD600 of 0.6, and recombinant protein expression was induced with 0.1 mM isopropyl β-D-thiogalactopyranoside (IPTG) at 20° C. The cells were further grown at 20° C. for 20 hr after IPTG induction. The purification methods were similar to methods that have been previously reported (Cheng, K. Y., et al. The crystal structure of the human polo-like kinase-1 polo box domain and its phospho-peptide complex. EMBO J 22, 5757-68 (2003)). Briefly, the cell pellet was resuspended in ice-cold HBS buffer (10 mM HEPES pH 7.5, 200 mM NaCl, 3.4 mM EDTA, 0.01% (v/v) 1-thioglycerol) and homogenized by sonication. After sonication, the cell debris was centrifuged and supernatant was applied to GST Sepharose resin (GE Healthcare). After extensive washing with HBS buffer, protein was eluted with HBS buffer supplemented with 20 mM reduced glutathione. PreScission protease (GE Healthcare) was added to eluted protein in order to remove the fused GST and the cleavage product was diluted and re-passed through GST Sepharose column. The flow through was collected and applied to Superdex 75 prep grade column (GE Healthcare) equilibrated with HBS buffer. The purified protein was concentrated to 6 mg/ml and used for fluorescence polarization binding assay or crystal screening.
For the fluorescence polarisation binding assay, FITC-labelled 1010pT (GVLSpTLI) or 1010T (GVLSTLI) (SEQ ID NO: 8) peptide was mixed with purified PBD and incubated in a buffer containing 10 mM HEPES (pH7.5), 50 mM NaCl, 1 mM EDTA, 1 mM DTT, and 0.0025% (v/v) Tween 20. The final protein concentrations ranged from 0 to 4 μM, and the final peptide concentration was 10 nM. Fluorescence polarisation was analysed 30 min after mixing the peptide and proteins in a 96-well plate using a VERSAmax microplate reader (Molecular Devices). Binding curves were fitted using GraphPad Prism software (GraphPad Software).
The human PLK1-PBD (371-594), PLK2-PBD (451-685) and PLK3-PBD (412-646) genes were cloned into pGEX6p-1 vector using EcoRI/XhoI restriction sites. […] The purified PLK-PBD proteins were concentrated and used for the fluorescence polarization binding assay.
For the fluorescence polarization binding assay, each fluorescein isothiocyanate (FITC)-labeled 1010pT (GVLSpTLI), 1010T (GVLSTLI), 1010E (GVLSELI), or 1010D (GVLSDLI) peptide was mixed with purified PLK1, PLK2 or PLK3 and incubated in a buffer containing 10 mM HEPES (pH 7.5), 50 mM NaCl, 1 mM EDTA, 1 mM DTT and 0.0025% (v/v) Tween 20. […]

In the next experiment the test system is C. elegans. In words: Embryonic mitosis and development after nocodazole treatment of worms. The experiment is classed as in vivo. The conditions noted are these: nocodazole alone, without capg-2 RNAi. Here is the method: C. elegans were cultivated on NGM plates at 20° C. as a standard culture method (Brenner, S. Genetics 77, 71-94 (1974)). The capg-2 RNAi clone was obtained from Dr. J. Ahringer's bacteria-feeding RNAi library, which was a kind gift from Dr. J. Lee (Seoul National University). The wild-type N2 strain was used for measuring embryo lethality when capg-2 RNAi was treated with nocodazole. RW10006 (HIS-72::GFP), XA3501 (GFP::HIS-11 and GFP::TBB-2), JG479 (NPP-1::GFP, mCherry::HIS-58 and GFP::TBB-2) and SA17(GFP::PLK-1) were used to determine the effects of capg-2 knockdown on mitosis. JG479 was generated by crossing XA3501 and OCF3 (NPP-1::GFP and mCherry::HIS-58). HIS-72 is histone 3, and TBB-2 is β-tubulin. Both HIS-11 and HIS-58 are histone 2B proteins (www.wormbase.org). Most strains were provided by the CGC, which is funded by the NIH Office of Research Infrastructure Programs (P40 OD010440). For capg-2 RNA interference, L4 worms were transferred to the RNAi plate, and the F1 embryos were observed. The HT115 E. coli strain, which contains the empty RNAi vector (L4440), was used as the control. […] The worms were removed after laying eggs for 12 hours, and the dead embryos were counted the next day. […]

Each structure is given as a SMILES string. Where a SMILES comes first, the peptide text is derived from it. [ ]: non-standard residue; d: D form. pT = C[C@@H](OP(=O)(O)O)[C@H](N)C(=O)O

T3 sequence (P53350 371-594): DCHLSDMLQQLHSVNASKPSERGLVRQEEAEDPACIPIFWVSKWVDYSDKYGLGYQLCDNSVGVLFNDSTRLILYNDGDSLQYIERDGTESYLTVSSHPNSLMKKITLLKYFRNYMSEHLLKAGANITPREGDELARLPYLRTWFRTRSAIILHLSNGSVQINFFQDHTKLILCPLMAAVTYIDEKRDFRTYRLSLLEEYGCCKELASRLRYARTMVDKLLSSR

In the case of `CC[C@H](C)[C@H](NC(=O)[C@H](CC(C)C)NC(=O)[C@@H](NC(=O)[C@H](CO)NC(=O)[C@H](CC(C)C)NC(=O)[C@@H](NC(=O)CN)C(C)C)[C@@H](C)OP(=O)(O)O)C(N)=O` [1010pT, GVLSpTLI] (H-GVLS[pT]LI-NH2; N-terminus and C-terminus assumed), on human PLK3-PBD (412-646), the “binding to PLK3-PBD (in words)” value is recorded as “did not bind”. Further, the “binding to PLK2-PBD (in words)” value on human PLK2-PBD (451-685) was “did not bind”. Besides, the “binding to PLK1-PBD (in words)” value on human PLK1-PBD (371-594) is “specifically binds”; on human PLK1-PBD (371-594) (listed as GVLS-pT-LI), “interacts strongly”.

Take `COC(=O)Nc1nc2ccc(C(=O)c3cccs3)cc2[nH]1` [Nocodazole, nocodazole]: the “effect on mitosis of embryos” value in the experiment on C. elegans is “did not directly affect mitosis”.

The record behind these values is patent US9562084B2, “Peptides derived from NCAPG2 and their use” (NATIONAL CANCER CENTER, priority 2014, dated 2017).
